Source: ChEMBL document CHEMBL1629631, “In vitro activities of various antifungal drugs against Aspergillus terreus: Global assessment using the methodology of the European committee on antimicrobial susceptibility testing” (2009)
In brackets after ≈: the same amount, converted by molar mass. Numbered stars: 1 amine (or outer) side, 2 acyl side, 3 side chain; on linkers, the order of the positions; unused ones are H or OH. Bridge positions count the residues as written; N and C are the ends. Square brackets hold non-standard residues; d marks the D form. Peptide text beside a SMILES is read from it. * marks the point of attachment. hTyr(3S-OH,4S-OH,3'-OSO3H) = N[C@H](C(=O)O)[C@H](O)[C@@H](O)c1ccc(O)c(OS(=O)(=O)O)c1; pTerphenylCO(4''-OnC5H11) = CCCCCOc1ccc(-c2ccc(-c3ccc(C(=O)*)cc3)cc2)cc1; Orn(4R-OH,5R-OH) = O=C([C@H](C[C@@H](O)[C@@H](O)N[*:3])N[*:1])[*:2]; hTyr(3S-OH,4S-OH) = N[C@H](C(=O)O)[C@H](O)[C@@H](O)c1ccc(O)cc1; Pro(3S-OH,4S-Me) = C[C@H]1CN[C@H](C(=O)O)[C@H]1O; X1 = CCCCCOc1ccc(-c2cc(-c3ccc(C(=O)*)cc3)no2)cc1; Gln(3R-OH) = NC(=O)C[C@@H](O)[C@H](N)C(=O)O; Hyp = O=C(O)[C@@H]1C[C@@H](O)CN1

Tests used:
Aspergillus terreus [1] = assay: Antimicrobial activity against Aspergillus terreus clinical isolate after 48 hrs by EUCAST test; assay type: functional
Aspergillus terreus [2] = assay: Antimicrobial activity against Aspergillus terreus environmental isolate after 48 hrs by EUCAST test; assay type: functional

| Structure (SMILES) | MIC50 (Aspergillus terreus [1]) | MIC90 (Aspergillus terreus [1]) | MIC50 (Aspergillus terreus [2]) | MIC90 (Aspergillus terreus [2]) |
| --- | --- | --- | --- | --- |
| CC[C@@H]([C@H](C)O)n1ncn(-c2ccc(N3CCN(c4ccc(OC[C@@H]5CO[C@@](Cn6cncn6)(c6ccc(F)cc6F)C5)cc4)CC3)cc2)c1=O [POSACONAZOLE] | 0.12 µg/mL (≈ 0.171 µM) | 0.12 µg/mL (≈ 0.171 µM) | 0.12 µg/mL (≈ 0.171 µM) | 0.12 µg/mL (≈ 0.171 µM) |
| CN(C/C=C/C#CC(C)(C)C)Cc1cccc2ccccc12 [TERBINAFINE] | 0.25 µg/mL (≈ 0.858 µM) | 0.5 µg/mL (≈ 1.72 µM) | 0.25 µg/mL (≈ 0.858 µM) | 0.5 µg/mL (≈ 1.72 µM) |
| CCCCCOc1ccc(-c2ccc(-c3ccc(C(=O)N[C@H]4C[C@@H](O)[C@@H](O)NC(=O)[C@@H]5[C@@H](O)[C@@H](C)CN5C(=O)[C@H]([C@@H](C)O)NC(=O)[C@H]([C@H](O)[C@@H](O)c5ccc(O)cc5)NC(=O)[C@@H]5C[C@@H](O)CN5C(=O)[C@H]([C@@H](C)O)NC4=O)cc3)cc2)cc1 [ANIDULAFUNGIN] ({pTerphenylCO(4''-OnC5H11)}-[Orn(4R-OH,5R-OH)]T[Hyp][hTyr(3S-OH,4S-OH)]T[Pro(3S-OH,4S-Me)]; lactam 1-C) | 0.015 µg/mL (≈ 0.0132 µM) | 0.03 µg/mL (≈ 0.0263 µM) | 0.015 µg/mL (≈ 0.0132 µM) | 0.03 µg/mL (≈ 0.0263 µM) |
| C[C@@H](c1ncncc1F)[C@](O)(Cn1cncn1)c1ccc(F)cc1F [VORICONAZOLE] | 1 µg/mL (≈ 2.86 µM) | 2 µg/mL (≈ 5.73 µM) | 1 µg/mL (≈ 2.86 µM) | 2 µg/mL (≈ 5.73 µM) |
| CCC(C)n1ncn(-c2ccc(N3CCN(c4ccc(OCC5COC(Cn6cncn6)(c6ccc(Cl)cc6Cl)O5)cc4)CC3)cc2)c1=O (stereo unspecified) [ITRACONAZOLE] | 0.125 µg/mL (≈ 0.177 µM) | 0.5 µg/mL (≈ 0.709 µM) | 0.125 µg/mL (≈ 0.177 µM) | 0.5 µg/mL (≈ 0.709 µM) |
| C[C@@H](c1nc(-c2ccc(C#N)cc2)cs1)[C@](O)(Cn1cncn1)c1ccc(F)cc1F [RAVUCONAZOLE] | 1 µg/mL (≈ 2.29 µM) | 2 µg/mL (≈ 4.57 µM) | 1 µg/mL (≈ 2.29 µM) | 2 µg/mL (≈ 4.57 µM) |
| CCCCCOc1ccc(-c2cc(-c3ccc(C(=O)N[C@H]4C[C@@H](O)[C@@H](O)NC(=O)[C@@H]5[C@@H](O)[C@@H](C)CN5C(=O)[C@H]([C@H](O)CC(N)=O)NC(=O)[C@H]([C@H](O)[C@@H](O)c5ccc(O)c(OS(=O)(=O)O)c5)NC(=O)[C@@H]5C[C@@H](O)CN5C(=O)[C@H]([C@@H](C)O)NC4=O)cc3)no2)cc1 [MICAFUNGIN] (X1-[Orn(4R-OH,5R-OH)]T[Hyp][hTyr(3S-OH,4S-OH,3'-OSO3H)][Gln(3R-OH)][Pro(3S-OH,4S-Me)]; lactam 1-C) | 0.015 µg/mL (≈ 0.0118 µM) | 0.03 µg/mL (≈ 0.0236 µM) | 0.015 µg/mL (≈ 0.0118 µM) | 0.03 µg/mL (≈ 0.0236 µM) |
| CC[C@H](C)C[C@H](C)CCCCCCCCC(=O)N[C@H]1C[C@@H](O)[C@@H](NCCN)NC(=O)[C@@H]2[C@@H](O)CCN2C(=O)[C@H]([C@H](O)CCN)NC(=O)[C@H]([C@H](O)[C@@H](O)c2ccc(O)cc2)NC(=O)[C@@H]2C[C@@H](O)CN2C(=O)[C@H]([C@@H](C)O)NC1=O [CASPOFUNGIN] | 1 µg/mL (≈ 0.915 µM) | 2 µg/mL (≈ 1.83 µM) | 1 µg/mL (≈ 0.915 µM) | 2 µg/mL (≈ 1.83 µM) |
| C[C@@H]1[C@H](O)[C@@H](C)/C=C/C=C/C=C/C=C/C=C/C=C/C=C/[C@H](O[C@@H]2O[C@H](C)[C@@H](O)[C@H](N)[C@@H]2O)C[C@@H]2O[C@](O)(C[C@@H](O)C[C@@H](O)[C@H](O)CC[C@@H](O)C[C@@H](O)CC(=O)O[C@H]1C)C[C@H](O)[C@H]2C(=O)O [AMPHOTERICIN B] | 2 µg/mL (≈ 2.16 µM) | 2 µg/mL (≈ 2.16 µM) | 2 µg/mL (≈ 2.16 µM) | 2 µg/mL (≈ 2.16 µM) |
